In patent US20170112182A1 (Next Generation Labs, LLC, priority 2015, published 2017):

Assays:
α4β2 nAChRs = α4β2 nAChRs (Homo sapiens, UniProt P17787+P43681); assay type: cell-based
α7 nAChRs = α7 nAChRs (Homo sapiens, UniProt P36544); assay type: cell-based
[1] = vaping study with 10 subjects rating throat feel and head feel dynamics; assay type: in vivo, human
Excerpt: In rating the head feel dynamics and throat feel of the different compositions, the subjects used the following criteria: […]

α7 nAChRs, sequence (P36544 23-502): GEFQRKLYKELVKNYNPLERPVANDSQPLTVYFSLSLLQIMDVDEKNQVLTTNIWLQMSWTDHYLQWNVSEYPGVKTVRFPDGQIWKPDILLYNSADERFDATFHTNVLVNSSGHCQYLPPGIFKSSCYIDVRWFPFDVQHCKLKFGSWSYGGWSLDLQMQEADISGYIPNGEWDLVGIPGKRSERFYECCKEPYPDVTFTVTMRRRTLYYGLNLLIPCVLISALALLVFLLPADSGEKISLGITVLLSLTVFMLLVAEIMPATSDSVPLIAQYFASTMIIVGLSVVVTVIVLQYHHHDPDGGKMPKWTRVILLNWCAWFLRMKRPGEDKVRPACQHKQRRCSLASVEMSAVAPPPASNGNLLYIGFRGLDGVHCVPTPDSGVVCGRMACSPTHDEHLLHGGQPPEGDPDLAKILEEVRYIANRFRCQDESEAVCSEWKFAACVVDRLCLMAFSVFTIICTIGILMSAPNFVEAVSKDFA
α4β2 nAChRs, sequence (P43681 29-627 limits assumed): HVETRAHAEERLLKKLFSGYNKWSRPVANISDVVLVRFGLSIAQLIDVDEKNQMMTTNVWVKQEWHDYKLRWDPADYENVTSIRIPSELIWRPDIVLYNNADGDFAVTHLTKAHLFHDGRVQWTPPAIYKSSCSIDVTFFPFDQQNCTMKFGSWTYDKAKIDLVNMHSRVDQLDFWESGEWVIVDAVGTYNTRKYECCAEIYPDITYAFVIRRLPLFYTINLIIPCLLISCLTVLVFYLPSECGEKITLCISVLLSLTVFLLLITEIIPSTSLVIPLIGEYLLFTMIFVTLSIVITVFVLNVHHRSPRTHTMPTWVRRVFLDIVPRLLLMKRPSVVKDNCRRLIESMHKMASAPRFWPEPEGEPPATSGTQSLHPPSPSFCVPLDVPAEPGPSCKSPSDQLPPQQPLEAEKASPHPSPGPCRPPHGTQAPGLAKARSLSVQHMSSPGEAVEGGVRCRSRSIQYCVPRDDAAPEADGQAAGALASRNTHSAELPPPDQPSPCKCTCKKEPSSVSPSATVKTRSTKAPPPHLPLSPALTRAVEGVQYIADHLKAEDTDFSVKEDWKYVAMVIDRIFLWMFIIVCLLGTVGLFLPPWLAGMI
α4β2 nAChRs, sequence (P17787 26-502): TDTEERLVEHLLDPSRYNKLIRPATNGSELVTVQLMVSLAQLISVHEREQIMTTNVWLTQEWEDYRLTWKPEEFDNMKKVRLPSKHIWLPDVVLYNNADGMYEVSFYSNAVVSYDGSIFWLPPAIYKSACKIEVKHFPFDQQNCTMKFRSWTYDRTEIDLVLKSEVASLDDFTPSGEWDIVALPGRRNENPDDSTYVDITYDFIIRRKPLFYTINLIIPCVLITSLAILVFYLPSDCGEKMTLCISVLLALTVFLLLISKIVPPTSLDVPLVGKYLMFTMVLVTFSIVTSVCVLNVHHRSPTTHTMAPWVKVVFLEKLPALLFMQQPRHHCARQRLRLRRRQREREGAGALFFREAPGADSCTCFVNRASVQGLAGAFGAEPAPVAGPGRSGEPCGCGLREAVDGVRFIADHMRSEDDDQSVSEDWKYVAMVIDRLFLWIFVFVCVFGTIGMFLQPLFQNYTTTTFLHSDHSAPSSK

CN1CCC[C@@H]1c1cccnc1 [Synthetic R nicotine, R nicotine]
agonist character in words (α4β2 nAChRs): partial agonist
agonist character in words (α7 nAChRs): full, weak agonist

CN1CCC[C@H]1c1cccnc1 [Synthetic S nicotine, S-nicotine]
Head Feel Dynamics compared with tobacco-derived counterpart ([1]; 0.3% loading level): same (within experimental error)
Head Feel Dynamics compared with tobacco-derived counterpart ([1]; 0.6% loading level): same (within experimental error)

CN1CCCC1c1cccnc1 (racemic) [Synthetic RS racemic nicotine, RS-Nicotine]
Head Feel Dynamics compared with tobacco-derived counterpart ([1]; 0.3% loading level): slightly less effect
Head Feel Dynamics compared with tobacco-derived counterpart ([1]; 0.6% loading level): slightly less effect
